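These data come from cells grown in 96-well plates and exposed to compound for 48 hours at five concentrations. GI50 is the concentration that inhibits growth by half.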 The source made the active and inactive calls. Rule as the data show it: active = GI50 up to about 1.1 µM and inactive = higher.
Key:
Test in all cases: NCI-60 cell line screen, 48 h
[1] = tested on: COLO 205
[2] = tested on: HCC 2998
[3] = tested on: HCT-15
[4] = tested on: Hs-578T
[5] = tested on: MDA-N
[6] = tested on: MOLT-4
[7] = tested on: NCI-H226
[8] = tested on: NCI-H522
[9] = tested on: NCI/ADR-RES
[10] = tested on: RXF 393
[11] = tested on: SF-268
[12] = tested on: SF-295
[13] = tested on: SK-MEL-2
[14] = tested on: SK-MEL-5
[15] = tested on: SNB-19
[16] = tested on: SNB-75
[17] = tested on: SR
[18] = tested on: TK-10
[19] = tested on: UO-31

| SMILES | GI50 [1] | GI50 [2] | GI50 [3] | GI50 [4] | GI50 [5] | GI50 [6] | GI50 [7] | GI50 [8] | GI50 [9] | GI50 [10] | GI50 [11] | GI50 [12] | GI50 [13] | GI50 [14] | GI50 [15] | GI50 [16] | GI50 [17] | GI50 [18] | GI50 [19] |
| --- | --- | --- | --- | --- | --- | --- | --- | --- | --- | --- | --- | --- | --- | --- | --- | --- | --- | --- | --- |
| Oc1ccc(SCc2ccc(NCc3ccccc3)cc2)cc1 | 35.4 µM (inactive) | 25.2 µM (inactive) | 8.97 µM | 53 µM (inactive) | 24.5 µM (inactive) | 11.4 µM (inactive) | 98.2 µM (inactive) | 20 µM (inactive) | 30.3 µM (inactive) | 19.9 µM (inactive) | 39.4 µM (inactive) | 22.3 µM (inactive) | 21.7 µM (inactive) | 20.7 µM (inactive) | 23.9 µM (inactive) | 21.6 µM (inactive) | 13.1 µM (inactive) | 50.4 µM (inactive) | 14.3 µM (inactive) |
| CC(NC(=O)C(CC(=O)OCc1ccccc1)NC(=O)OCc1ccccc1)c1ccccc1 (stereo not drawn) | > 100 µM (inactive) | > 100 µM (inactive) | > 100 µM | > 100 µM (inactive) | > 100 µM (inactive) | > 100 µM (inactive) | 43.5 µM (inactive) | 37.4 µM (inactive) | > 100 µM (inactive) | 19.2 µM (inactive) | > 100 µM (inactive) | 55.1 µM (inactive) | > 100 µM (inactive) | > 100 µM (inactive) | 48 µM (inactive) | > 100 µM (inactive) | > 100 µM (inactive) | > 100 µM (inactive) | > 100 µM (inactive) |
| CC1(C)C=C(/C=N/Nc2ccc([N+](=O)[O-])cc2)C(C#N)=C(O)C1(C#N)C#N | > 100 µM (inactive) | > 100 µM (inactive) | > 100 µM | > 100 µM (inactive) | > 100 µM (inactive) | > 100 µM (inactive) | > 100 µM (inactive) | > 100 µM (inactive) | > 100 µM (inactive) | > 100 µM (inactive) | > 100 µM (inactive) | > 100 µM (inactive) | > 100 µM (inactive) | > 100 µM (inactive) | > 100 µM (inactive) | > 100 µM (inactive) | > 100 µM (inactive) | > 100 µM (inactive) | > 100 µM (inactive) |
| CC(C)C(/C=C/c1ccccc1)=N\NC(=S)NN | 55.1 µM (inactive) | 99.1 µM (inactive) | 31.6 µM | 80.5 µM (inactive) | 26.6 µM (inactive) | 12.7 µM (inactive) | > 70.3 µM (inactive) | 16.7 µM (inactive) | 41.6 µM (inactive) | 99.8 µM (inactive) | 20.7 µM (inactive) | 67.6 µM (inactive) | > 55.6 µM (inactive) | 33 µM (inactive) | > 100 µM (inactive) | > 100 µM (inactive) | 0.546 µM (active) | > 100 µM (inactive) | 32.3 µM (inactive) |
| CCC(=O)Oc1c2ccsc2c(OC(=O)CC)c2ccsc12 | 5.51 µM (inactive) | 1.93 µM (inactive) | 0.318 µM | 0.372 µM (active) | 0.0555 µM (active) | 0.75 µM (active) | 2.06 µM (inactive) | 0.474 µM (active) | 0.279 µM (active) | 1 µM (active) | 0.518 µM (active) | 0.254 µM (active) | 0.344 µM (active) | 0.0753 µM (active) | 0.54 µM (active) | 0.184 µM (active) | 0.297 µM (active) | 2.25 µM (inactive) | 0.51 µM (active) |
| Nc1ccn([C@H]2CO[C@@H](CO)O2)c(=O)n1 | 83 µM (inactive) | 33.7 µM (inactive) | 5.4 µM | > 100 µM (inactive) | 17.4 µM (inactive) | 0.28 µM (active) | 39.4 µM (inactive) | 7.03 µM (inactive) | 3.88 µM (inactive) | 1.83 µM (inactive) | 11.4 µM (inactive) | 1.2 µM (inactive) | > 100 µM (inactive) | 18.9 µM (inactive) | 4.26 µM (inactive) | > 100 µM (inactive) | 1.49 µM (inactive) | > 100 µM (inactive) | 1.57 µM (inactive) |
| C=CC(=O)N1C/C(=C\c2ccc(F)cc2)C(=O)/C(=C/c2ccc(F)cc2)C1 | 0.391 µM (active) | 0.267 µM (active) | 0.166 µM | 0.235 µM (active) | 0.157 µM (active) | 0.207 µM (active) | 0.352 µM (active) | 0.476 µM (active) | 0.365 µM (active) | 0.185 µM (active) | 0.206 µM (active) | 0.44 µM (active) | 0.843 µM (active) | 0.811 µM (active) | 0.944 µM (active) | 0.35 µM (active) | 0.0491 µM (active) | 1 µM (active) | 0.849 µM (active) |

From ChEMBL document CHEMBL1201862, “PubChem BioAssay data set” (2004)
